We go through two molecules from ChEMBL document CHEMBL5034034 (J Med Chem, 2021).

Data set [1] can be described thus: Unbound clearance in cynomolgus monkey at 1 mg/kg, iv measured upto 72 hrs by LC-MS/MS analysis. The class given is ADME, organism-based, Macaca fascicularis. As to conditions: in vivo.
The nature of data set [2]: AUC(0 to infinity) in Wistar Han rat at 1 mg/kg, iv measured upto 24 hrs by LC-MS/MS analysis. The class given is ADME, organism-based. Also noted: route intravenous, dose 1 mg/kg, time <=24. As to conditions: in vivo.
The nature of data set [3]: Clearance in cynomolgus monkey at 1 mg/kg, iv measured upto 72 hrs by LC-MS/MS analysis. In kind it is ADME, organism-based, Macaca fascicularis. Conditions: in vivo.
A short description of data set [4]: Protein binding in Wistar Han rat at 1 mg/kg, iv measured upto 24 hrs by LC-MS/MS analysis. In kind it is ADME, organism-based. Conditions: in vivo, read-out: PB (converted).
Data set [5] can be described thus: Protein binding in OATP knock out Wistar Han rat. In kind it is ADME. As to conditions: read-out: PB.
Data set [6] is described as follows: Half life in OATP knock out Wistar Han rat at 1 mg/kg, iv measured upto 24 hrs by LC-MS/MS analysis. In kind it is ADME, organism-based. As to conditions: in vivo.
Data set [7] can be described thus: Half life in cynomolgus monkey at 1 mg/kg, iv measured upto 72 hrs by LC-MS/MS analysis. In kind it is ADME, organism-based, Macaca fascicularis. Conditions: in vivo.
The test system of another data set is Mast cell. Put plainly: Induction of rat mast cells degranulation activity at 100 uM incubated for 30 mins. The class given is functional, tissue-based.
A short description of data set [8]: Volume of distribution at steady state in Wistar Han rat at 1 mg/kg, iv measured upto 24 hrs by LC-MS/MS analysis. In kind it is ADME, organism-based. Conditions: in vivo, read-out: Vdss.
The nature of data set [9]: Unbound clearance in Wistar Han rat at 1 mg/kg, iv measured upto 24 hrs by LC-MS/MS analysis. In kind it is ADME, organism-based. As to conditions: in vivo.
The nature of data set [10]: Half life in Wistar Han rat at 1 mg/kg, iv measured upto 24 hrs by LC-MS/MS analysis. The class given is ADME, organism-based. As to conditions: in vivo.
The target in data set [11] is T1, Proprotein convertase subtilisin/kexin type 9 (Homo sapiens, UniProt Q8NBP7). Put plainly: Inhibition of human PCSK9 using Alexa Fluor […] as substrate incubated for 2 hrs by FRET assay.
T1 sequence (Q8NBP7 31-152 limits assumed): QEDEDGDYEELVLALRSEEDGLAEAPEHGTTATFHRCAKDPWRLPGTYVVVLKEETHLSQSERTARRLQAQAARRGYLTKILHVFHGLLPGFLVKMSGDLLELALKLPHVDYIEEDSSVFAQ
T1 sequence (Q8NBP7 153-692 limits assumed): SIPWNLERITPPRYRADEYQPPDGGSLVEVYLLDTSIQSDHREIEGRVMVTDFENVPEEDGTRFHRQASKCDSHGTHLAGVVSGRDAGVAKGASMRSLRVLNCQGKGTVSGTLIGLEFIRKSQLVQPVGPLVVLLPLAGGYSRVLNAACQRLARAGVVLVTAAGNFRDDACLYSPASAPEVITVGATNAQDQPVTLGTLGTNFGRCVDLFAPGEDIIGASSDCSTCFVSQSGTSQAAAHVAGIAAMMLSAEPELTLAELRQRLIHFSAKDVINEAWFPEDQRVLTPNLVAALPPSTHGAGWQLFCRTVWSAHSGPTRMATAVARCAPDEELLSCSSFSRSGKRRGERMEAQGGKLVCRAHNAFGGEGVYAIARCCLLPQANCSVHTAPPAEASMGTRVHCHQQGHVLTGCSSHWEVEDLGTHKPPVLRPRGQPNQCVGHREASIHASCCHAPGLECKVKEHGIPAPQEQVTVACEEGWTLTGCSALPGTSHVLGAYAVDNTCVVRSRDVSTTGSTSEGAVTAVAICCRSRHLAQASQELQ
Data set [12] concerns the target T2, Solute carrier organic anion transporter family member 1B1 (Homo sapiens, UniProt Q9Y6L6).
T2 sequence (Q9Y6L6 whole entry): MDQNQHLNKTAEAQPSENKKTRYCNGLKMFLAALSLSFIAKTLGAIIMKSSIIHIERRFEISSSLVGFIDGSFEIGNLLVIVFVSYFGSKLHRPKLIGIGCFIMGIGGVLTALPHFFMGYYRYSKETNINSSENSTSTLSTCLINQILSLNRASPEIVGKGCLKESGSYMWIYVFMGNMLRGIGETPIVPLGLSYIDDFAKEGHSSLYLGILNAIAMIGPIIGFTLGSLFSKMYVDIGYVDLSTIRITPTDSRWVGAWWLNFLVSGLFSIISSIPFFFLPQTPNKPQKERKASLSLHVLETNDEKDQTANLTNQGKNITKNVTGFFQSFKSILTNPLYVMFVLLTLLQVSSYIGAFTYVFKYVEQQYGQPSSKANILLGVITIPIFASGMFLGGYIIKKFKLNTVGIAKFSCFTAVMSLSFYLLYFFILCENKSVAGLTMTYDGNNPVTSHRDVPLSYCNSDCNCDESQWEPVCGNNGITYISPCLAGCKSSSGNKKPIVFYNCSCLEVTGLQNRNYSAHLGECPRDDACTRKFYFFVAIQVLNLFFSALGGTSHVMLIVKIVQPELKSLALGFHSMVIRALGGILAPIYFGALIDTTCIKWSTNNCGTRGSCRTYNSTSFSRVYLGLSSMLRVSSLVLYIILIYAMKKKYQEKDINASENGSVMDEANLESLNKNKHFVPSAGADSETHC
Briefly: Inhibition of OATP1B1 (unknown origin) expressed in HEK293 cells assessed as reduction in OATP 1B1-mediated [3H]-pitavastatin uptake preincubated for 30 mins followed by [3H]-pitavastatin addition and measured after 2 mins by liquid scintillation analysis. The class given is cell-based.

Data set [13] can be described thus: Volume of distribution at steady state in OATP knock out Wistar Han rat at 1 mg/kg, iv measured upto 24 hrs by LC-MS/MS analysis. Conditions: in vivo, read-out: Vdss. The class given is ADME, organism-based.
A short description of data set [14]: Volume of distribution at steady state in cynomolgus monkey at 1 mg/kg, iv measured upto 72 hrs by LC-MS/MS analysis. The class given is ADME, organism-based, Macaca fascicularis. Conditions: in vivo, read-out: Vdss.
A short description of data set [15]: Clearance in Wistar Han rat at 1 mg/kg, iv measured upto 24 hrs by LC-MS/MS analysis. The class given is ADME, organism-based. Conditions: in vivo.
Data set [16] is described as follows: Clearance in OATP knock out Wistar Han rat at 1 mg/kg, iv measured upto 24 hrs by LC-MS/MS analysis. The class given is ADME, organism-based. Conditions: in vivo.
Data set [17] in a line: AUC(0 to infinity) in cynomolgus monkey at 1 mg/kg, iv measured upto 72 hrs by LC-MS/MS analysis. As to conditions: in vivo. The class given is ADME, organism-based, Macaca fascicularis. Also noted: route intravenous, dose 1 mg/kg, time <=72.
The target of data set [18] is T1, Proprotein convertase subtilisin/kexin type 9. Put plainly: Inhibition of human PCSK9 using Alexa Fluor […] as substrate incubated for 2 hrs by FRET plus assay.
A short description of data set [19]: Unbound clearance in OATP knock out Wistar Han rat at 1 mg/kg, iv measured upto 24 hrs by LC-MS/MS analysis. The class given is ADME, organism-based. As to conditions: in vivo.
Data set [20] can be described thus: AUC(0 to infinity) in OATP knock out Wistar Han rat at 1 mg/kg, iv measured upto 24 hrs by LC-MS/MS analysis. In kind it is ADME, organism-based. Set-up: route intravenous, dose 1 mg/kg, time <=24. As to conditions: in vivo.
A short description of data set [21]: Protein binding in cynomolgus monkey at 1 mg/kg, iv measured upto 72 hrs by LC-MS/MS analysis. In kind it is ADME, organism-based, Macaca fascicularis. As to conditions: in vivo, read-out: PB (converted).
Data set [22] in a line: Reduction in unbound PCSK9 levels in cynomolgus monkey at 0.2 mg/kg, iv after 24 to 48 hrs. The class given is functional, Macaca fascicularis. Set-up: scale not given: the % may be the effect or the level left. As to conditions: time 24-48 hrs.
Data set [23] in a line: Protein binding in cynomolgus monkey at 0.2 mg/kg, iv measured upto 72 hrs by LC-MS/MS analysis. The class given is ADME, organism-based, Macaca fascicularis. As to conditions: in vivo, read-out: PB (converted).
The next data set deals with Macaca fascicularis. Briefly: Reduction in LDL-cholesterol levels in cynomolgus monkey at 0.2 mg/kg, iv after 4 weeks. In kind it is functional, organism-based.
Data set [24] in a line: Volume of distribution at steady state in cynomolgus monkey at 0.2 mg/kg, iv measured upto 72 hrs by LC-MS/MS analysis. The class given is ADME, organism-based, Macaca fascicularis. Conditions: in vivo, read-out: Vdss.
The nature of data set [25]: Reduction in LDL-cholesterol levels in cynomolgus monkey at 0.2 mg/kg, iv after 48 hrs. The class given is functional, Macaca fascicularis. Also noted: scale not given: the % may be the effect or the level left.
The species entered for the next data set is Bos taurus. Briefly: Stability of the compound assessed as bovine pancreas alpha chymotrypsin-mediated parent compound depletion by measuring parent compound remaining after 1 hr by LC-MS/MS analysis.
A short description of data set [26]: Clearance in cynomolgus monkey at 0.2 mg/kg, iv measured upto 72 hrs by LC-MS/MS analysis. Conditions: in vivo. The class given is ADME, organism-based, Macaca fascicularis.
The species named for data set [27] is Sus scrofa. Put plainly: Stability of the compound assessed as porcine pepsin-mediated parent compound depletion by measuring parent compound remaining after 1 hr by LC-MS/MS analysis.
Data set [28] is filed under the species Sus scrofa. Put plainly: Stability of the compound assessed as porcine pancreatic elastase-mediated parent compound depletion by measuring parent compound remaining after 1 hr by LC-MS/MS analysis.
Data set [29] can be described thus: Half life in cynomolgus monkey at 0.2 mg/kg, iv measured upto 72 hrs by LC-MS/MS analysis. As to conditions: in vivo. The class given is ADME, organism-based, Macaca fascicularis.
The nature of data set [30]: Stability of the compound assessed as bovine pancreatic trypsin-mediated parent compound depletion by measuring parent compound remaining after 1 hr by LC-MS/MS analysis. The class given is ADME, Bos taurus. As to conditions: cattle, read-out: Stability.
The nature of data set [31]: AUC(0 to infinity) in Wistar Han rat at 5 mg/kg, id measured upto 24 hrs by LC-MS/MS analysis. In kind it is ADME, organism-based. Also noted: dose 5 mg/kg, time <=24. As to conditions: in vivo.
A short description of data set [32]: Unbound clearance in cynomolgus monkey at 0.2 mg/kg, iv measured upto 72 hrs by LC-MS/MS analysis. The class given is ADME, organism-based, Macaca fascicularis. Conditions: in vivo.
The target in data set [33] is T1, Proprotein convertase subtilisin/kexin type 9. Briefly: Inhibition of human PCSK9 using Alexa Fluor […] as substrate incubated for 2 hrs by FRET ultra assay.
A short description of data set [34]: Cmax in Wistar Han rat at 5 mg/kg, id measured upto 24 hrs by LC-MS/MS analysis. In kind it is ADME, organism-based. Also noted: dose 5 mg/kg, time <=24. Conditions: in vivo.
The nature of data set [35]: AUC(0 to infinity) in cynomolgus monkey at 0.2 mg/kg, iv measured upto 72 hrs by LC-MS/MS analysis. In kind it is ADME, organism-based, Macaca fascicularis. Conditions: in vivo. Also noted: route intravenous, dose 0.2 mg/kg, time <=72.
The nature of data set [36]: Metabolic stability in cynomolgus monkey whole blood assessed as half life measured upto 6 hrs by LC-MS/MS analysis. The class given is ADME, tissue-based, Macaca fascicularis.
Data set [37] can be described thus: Bioavailability in Wistar Han rat at 5 mg/kg, id measured upto 24 hrs by LC-MS/MS analysis. In kind it is ADME, organism-based. Conditions: in vivo.
The nature of data set [38]: Tmax in Wistar Han rat at 5 mg/kg, id measured upto 24 hrs by LC-MS/MS analysis. As to conditions: in vivo. The class given is ADME, organism-based.
A short description of data set [39]: AUC extrapolated in Wistar Han rat at 5 mg/kg, id measured upto 24 hrs by LC-MS/MS analysis. The class given is ADME, organism-based. As to conditions: in vivo, other.

The source made the active and inactive calls. The calls are words filed in the database; no cut-off is given here. Where only a bound is given, the exact number is not on record here.

Consider `COc1ccc(C[C@@H]2NC(=O)[C@H]([C@@H](C)OC)NC(=O)[C@@H]3[C@@H]4CCN3C(=O)[C@H](Cc3c[nH]c5ccc(F)cc35)NC(=O)[C@H](Cc3cccc(c3)C/C=C/CO4)NC(=O)[C@@H](C)NC(=O)[C@H](C)NC(=O)CCSCc3cccc(c3)CSCCNC(=O)[C@]3(C)CCCN3C2=O)cc1`, for which the CL free in [1] is 576 mL/min/kg; in [9] it was more than 3000 mL/min/kg; in data set [19] it was 453 mL/min/kg. The figures for the AUC(0-inf) in [2], in [17] and in data set [20] were 0.442 µM·h, 0.648 µM·h and 2.92 µM·h, respectively. Besides, the clearance in data set [3] was 19.6 mL/min/kg; in data set [15], 28.7 mL/min/kg; in data set [16], 4.4 mL/min/kg. The fraction unbound at 24 h in data set [4] was 0.01. Also, the fraction unbound in data set [5] stood at 0.01. The half-life in data set [6] is 3.9 h; in data set [7] it was 3.4 h; in [10] it was 2.1 h. Besides, the result with Mast cell was inactive. Moreover, the Vd in data set [8] was found to be 0.8 L/kg; in data set [13], 0.9 L/kg; in data set [14] it was 2.1 L/kg. The Ki came out at 0.48 nM in data set [11] and 0.39 nM in data set [18]. Moreover, the EC50 in [12] came out at 130 nM. Also, in [21], the fraction unbound at 72 h was 0.024.

Regarding `COc1ccc(C[C@@H]2NC(=O)[C@H]([C@@H](C)O)NC(=O)[C@@H]3[C@@H]4CCN3C(=O)[C@@H]3Cc5cn(c6ccc(F)cc56)Cc5cn(nn5)-c5cc(cc(c5)CSCCC(=O)N[C@@H](C)C(=O)N[C@H](CNC(=O)CCOCCOCC[N+](C)(C)C)C(=O)N[C@@H](Cc5cccc(c5)C/C=C/CO4)C(=O)N3)CSCCNC(=O)[C@]3(C)CCCN3C2=O)cc1`, the Activity in data set [22] is recorded as more than 80%; in [25], more than 50%. Further, the fraction unbound at 72 h in data set [23] is 0.256. The result in the data set with Macaca fascicularis and in the data set with Mast cell was inactive. Besides, the Vd in [24] amounted to 1.2 L/kg. Further, the Stability in the data set listed under Bos taurus was determined as 95.3%; in the data set listed under Sus scrofa [27] it was 99%; in the data set filed under Sus scrofa [28] it was 92.6%. This molecule also yielded a clearance in data set [26] of 2.7 mL/min/kg. Further, the half-life was 10.1 h in [29] and more than 6 h in data set [36]. The remaining at 1 h in [30] stood at 100%. Moreover, the inhibition constant Ki in [11] is less than 0.129 nM; in data set [33], 0.00093 nM; in [18], 0.00736 nM. Moreover, the results for the AUC(0-inf) in data set [31] and in data set [35] were 0.497 µM·h and 0.762 µM·h, respectively. In [12], the EC50 stood at 2500 nM. Further, in data set [32], the CL free turned out to be 10.6 mL/min/kg. For the same molecule, the peak level in data set [34] (Cmax) was 178 nM. In data set [37], this molecule gave a bioavailability of 1.4%. In data set [38], the Tmax worked out at 0.3 h. Besides, the “%AUCextra” value in [39] is given as 3%.
